Source: US20080038321A1, “PROPHYLACTIC/THERAPEUTIC COMPOSITIONS FOR LIVER DISEASES” (Ajinomoto Co., Inc., priority 2004, published 2008)
“Also recorded” adds a separate entry of the source.

Legend:
[1] = tested on: malic enzyme (ME) gene; experiment: Liver gene expression profiling in GK rats (Gene Chip Rat Genome U34A Array): ME; format: in vivo; settings: 8 weeks, CON group = 1.00
Procedure: (§1) Gene expression profiling was conducted using samples containing equivalent amounts of genes in the liver of individuals in the individual groups. The gene expression profiling was carried out with the Gene Chip Rat Genome U34A Array (Affymetrix Inc.). […] This is because the two genes relate to steatogenesis.
(§2) The mRNA levels are expressed while defining the level in the CON group as 1.00.

[2] = tested on: G6Pase; experiment: Liver gene expression in high-fat diet GK rats after 6-week administration (quantitative PCR): G6Pase; format: in vivo, rat
From the text: (§3) The mRNA levels are expressed while defining the level in the SD group as 1.00. <Primer Sequence>

[3] = tested on: Wistar rats fed with high-fat diets; experiment: Wistar rats fed with high-fat diets: body weight and liver triglyceride; format: in vivo, rat
From the text: Pharmacological actions of L-Asp were identified using Wistar rats fed with high-fat diets.
These triglyceride contents were converted into total triglyceride contents in the entire liver.

[4] = tested on: PPAR-alpha; experiment: Liver gene expression in high-fat diet GK rats after 6-week administration (quantitative PCR): PPAR-alpha; format: in vivo, rat
From the text: as §3

[5] = tested on: GK rats; experiment: Long-term L-Asp in diet to GK rats: fasting blood glucose and insulin; format: in vivo, rat; settings: 3% L-Asp-containing diet (3AS), 6 weeks, n = 5, mean ± SD
Procedure: (§4) Specifically, L-Asp as mixed in a diet was administered to GK rats over a long time, and the effect of the administration on gene expression in the liver and disease state was determined.
(§5) Male 6-week-old GK rats were purchased, pre-fed for one week, grouped into the following groups each including five rats, the diet was replaced with experimental diets, and the rats were fed with the experimental diets for eight weeks.
CON group: administered with a control diet
3AS group: administered with a 3% L-Asp-containing diet
6AS group: administered with a 6% L-Asp-containing diet
The fasting blood glucose level is generally considered to be an index reflecting the basal insulin secretion and the insulin resistance.

[6] = tested on: ACO; experiment: Liver gene expression in high-fat diet GK rats after 6-week administration (quantitative PCR): ACO; format: in vivo, rat
From the text: as §3

[7] = tested on: glucose-6-phosphatase (G6Pase); experiment: Effect of L-Asp on G6Pase expression suppressive action of insulin in Fao cells (quantitative PCR); format: cell-based, rat; settings: for G6Pase expression level: 6 h, -Asp RPMI without insulin = 1.00; for G6Pase expression level (value in parentheses): -Asp RPMI at same insulin concentration = 1.00
Procedure: To verify whether an amino acid showing a TRB3 expression suppressive action actually increases the insulin action on hepatocytes, how L-Asp acts on glucose-6-phosphatase (G6Pase) expression suppressive action of insulin in rat hepatic cancer-derived Fao cells was studied.
Fao cells were inoculated on a 24-well plate and cultured overnight. Thereafter, 0, 0.3, and 1.0 mM L-Asp and 0, 10^−10, 10^−8, and 10^−6 M insulin were added respectively to a basal medium corresponding to RPMI 1640 medium containing no glucose but 0.1% BSA, except with L-Asp being removed therefrom, and the cells were further cultivated for six hours. RNAs were extracted from the cultured cells, and the expression levels of G6Pase were determined through quantitative PCR.
The G6Pase expression level in −Asp RPMI medium added with no insulin is defined as 1.00.
The values in the parentheses are values while defining the G6Pase expression levels in −Asp RPMI medium at respective insulin concentrations as 1.00, respectively.

[8] = tested on: TRB3; experiment: Suppressive effects of amino acids on TRB3 expression in cultured hepatocytes (Fao cells, quantitative PCR); format: cell-based, rat; settings: 3 h, minus amino acid medium plus one L-amino acid 1 mM (or standard medium), mRNA, minus amino acid medium = 1.00, n = 4, mean ± SD
Procedure: Suppressive effects of twenty-two amino acids on TRB3 expression in rat hepatic cancer-derived Fao cells were examined.
The standard medium is a medium corresponding to the minus amino acid medium, except for further containing amino acids listed in Table 2.
RNAs were extracted from the cultured cells, the expression levels of TRB3 gene were determined through quantitative polymerase chain reaction (PCR), and the suppressive effects of amino acids on TRB3 expression were determined and compared with data of TRB3 expression induced upon amino acid starvation. The gene expression was corrected with reference to β-actin expression level. The correction was carried out in the same manner in the after-mentioned genes.
The data were corrected and expressed while taking the average of TRB3 mRNA levels after three-hour cultivation in the minus amino acid medium as 1.00.

[9] = tested on: TRB3; experiment: as above; format: cell-based, rat; settings: other experiments; 0.03 mM to 0.3 mM
[10] = tested on: G6Pase; experiment: Liver gene expression in GK rats after 8 weeks L-Asp diet (quantitative PCR): G6Pase; format: in vivo, rat; settings: 3% L-Asp diet (3AS), CON group = 1.00
Procedure: as §4, §5
On week eight of administration, the liver was extirpated after eighteen-hour fasting, RNAs were extracted, and the gene expressions were determined through quantitative PCR and compared.

[11] = tested on: TRB3; experiment: Liver gene expression in high-fat diet GK rats after 6-week administration (quantitative PCR): TRB3; format: in vivo, rat
From the text: as §3

[12] = tested on: GK rats fed with high-fat diets; experiment: GK rats fed with high-fat diets: body weight, fasting glucose, insulin, triglyceride, liver triglyceride
[13] = tested on: GK rats fed with high-fat diets; settings: rat, in vivo
[14] = tested on: stearoyl-Coenzyme A desaturase 1 (SCD1) gene; experiment: Liver gene expression profiling in GK rats (Gene Chip Rat Genome U34A Array): SCD1; format: in vivo; settings: 8 weeks, CON group = 1.00
Procedure: as §1, §2

[15] = HFD + Asp, HFD = 1.00 in table, n = 6, mean
[16] = HFD + Asp, 6-week administration, HFD = 1.00 in table, n = 6, mean
[17] = L-Asp administration, 6 weeks, HFD
[18] = before administration (baseline), HFD with about 6% L-Asp or 0.01% pioglitazone
[19] = week 3, HFD with about 6% L-Asp or 0.01% pioglitazone
[20] = week 6, HFD with about 6% L-Asp or 0.01% pioglitazone

`N[C@@H](CC(=O)O)C(=O)O` [L-Asp, L-aspartic acid] was tested, and the “ME mRNA level in liver” value ([1]; 3% L-Asp diet (3AS)) was 0.55, the “ME mRNA level in liver” value ([1]; 6% L-Asp diet (6AS)) was 0.62 and the “G6Pase mRNA level in liver” value [2, 15] was 0.52. For the same compound, the “G6Pase expression relative to HFD group” value ([2]; HFD plus Asp group) was 0.52 time, the Body weight ([3]; before administration (baseline), HFD plus about 6% L-Asp, n = 6) was 328 ± 9 g and the triglyceride content ([3]; four weeks, HFD plus Asp group, HFD group 57.6) was 43.4 mg per 1 g of the liver. The “total triglyceride content in the liver” value ([3]; four weeks, HFD plus Asp group, HFD group 1047.5) was 743.4 mg, the “Triglyceride content in liver” value ([3]; week 4, HFD plus about 6% L-Asp) was 43 ± 10 mg/g and the Body weight ([3]; week 4, HFD plus about 6% L-Asp, n = 6) was “tended to have a decreased body weight”. The Body weight ([3]; week 4, HFD plus about 6% L-Asp, n = 6, listed as Asp) was 474 ± 20 g, the “PPARα mRNA level in liver” value [4, 16] was 1.34 and the PPAR-alpha gene expression [4, 17] was 1.34 time. The “Fasting blood glucose level” value [5] was 151 ± 4.8 mg/dL, the “ACO mRNA level in liver” value [6, 16] was 1.18 and the ACO gene expression [6, 17] was 1.18 time. For the same compound, the G6Pase expression level ([7]; 0.3 mM Asp, insulin 0 M) was 0.603, the “G6Pase expression level (value in parentheses)” value ([7]; 0.3 mM Asp, insulin 0 M) was 0.60 and the G6Pase expression level ([7]; 0.3 mM Asp, insulin 10^-6 M) was 0.014. The “G6Pase expression level (value in parentheses)” value ([7]; 0.3 mM Asp, insulin 10^-6 M) was 0.60, the G6Pase expression level ([7]; 0.3 mM Asp, insulin 10^-8 M) was 0.022 and the “G6Pase expression level (value in parentheses)” value ([7]; 0.3 mM Asp, insulin 10^-8 M) was 0.70. The G6Pase expression level ([7]; 0.3 mM Asp, insulin 10^-10 M) was 0.100, the “G6Pase expression level (value in parentheses)” value ([7]; 0.3 mM Asp, insulin 10^-10 M) was 0.67 and the G6Pase expression level ([7]; 1 mM Asp, insulin 0 M) was 0.397. For the same compound, the “G6Pase expression level (value in parentheses)” value ([7]; 1 mM Asp, insulin 0 M) was 0.40, the G6Pase expression level ([7]; 1 mM Asp, insulin 10^-6 M) was 0.008 and the “G6Pase expression level (value in parentheses)” value ([7]; 1 mM Asp, insulin 10^-6 M) was 0.36. For the same compound, the G6Pase expression level ([7]; 1 mM Asp, insulin 10^-8 M) was 0.016, the “G6Pase expression level (value in parentheses)” value ([7]; 1 mM Asp, insulin 10^-8 M) was 0.52 and the G6Pase expression level ([7]; 1 mM Asp, insulin 10^-10 M) was 0.076. For the same compound, the “G6Pase expression level (value in parentheses)” value ([7]; 1 mM Asp, insulin 10^-10 M) was 0.51, the “G6Pase expression suppressive action” value ([7]; L-Asp alone, glucose starvation) was “G6Pase expression suppressive action even if used alone” and the G6Pase expression suppression ([7]; L-Asp in combination with insulin) was “increased G6Pase expression suppression when used in combination with insulin”. For the same compound, the TRB3 expression level [8] was 0.724 ± 0.13, the TRB3 expression level ([8]; listed as aspartic acid) was “significantly suppressed TRB3 expression” and the “suppression of TRB3 expression” value [9] was “significantly suppresses the TRB3 expression”. The “G6Pase mRNA level in liver” value [10] was 0.99 ± 0.15, the “TRB3 mRNA level in liver” value [11, 15] was 0.58 and the “TRB3 expression relative to HFD group” value ([11]; HFD plus Asp group) was 0.58 time. The “lipid droplet accumulation around the hepatic portal vein region (histological study)” value ([12]; HFD plus Asp group) was “improved (reduced) lipid droplet accumulation”, the “increase in fasting blood glucose level and fasting plasma insulin level (insulin resistance)” value ([12]; HFD plus Asp group compared with HFD group) was “less increase in these parameters; also recorded: substantially equivalent to that of the pioglitazone group” and the fasting plasma triglyceride ([12]; HFD plus Asp group compared with SD group) was “decreased fasting plasma triglyceride”. For the same compound, the “Fasting blood glucose level” value [12, 18] was 100 ± 8 mg/dL, the Fasting insulin level [12, 18] was 0.5 ± 0.3 ng/mL and the Fasting triglyceride level [12, 18] was 92 ± 20 mg/dL. For the same compound, the “Fasting blood glucose level” value [12, 19] was 124 ± 7 mg/dL, the Fasting insulin level [12, 19] was 1.6 ± 0.4 ng/mL and the Fasting triglyceride level [12, 19] was 77 ± 14 mg/dL. The “Fasting blood glucose level” value [12, 20] was 110 ± 10 mg/dL, the Fasting insulin level [12, 20] was 1.5 ± 0.2 ng/mL and the Fasting triglyceride level [12, 20] was 70 ± 16 mg/dL. For the same compound, the “Triglyceride content in liver” value [12, 20] was 28 ± 5 mg/g, the Body weight [13] was 221 ± 11 g and the “SCD1 mRNA level in liver” value ([14]; 3% L-Asp diet (3AS)) was 0.78. For the same compound, the “SCD1 mRNA level in liver” value ([14]; 6% L-Asp diet (6AS)) was 0.71.
